From patent US9585957B2, “Adenosine receptor agonists and antagonists to modulate T cell responses” (THE JOHNS HOPKINS UNIVERSITY, priority 2007, dated 2017) come the findings set out here.

Experiment [1] concerns B16 melanoma cells. In words: B16 melanoma lung metastases in mice treated with TA99 antibody, with or without ZM. Format: in vivo. To be noted: Wt mice, 200 ug TA99 on day +1 plus ZM 10 mg/kg IP twice a day from Day 0; Day +15 (FIG. 17). On the procedure:
Wt and A2a receptor null mice received 1 million B16 melanoma cells IV on day 0. Control mice received not treatment. Treated mice received 200 ug IP of TA99 antibody on days 0, 2, 5. The mice were sacrificed on Day 15 and lung mets were counted.
Wt mice received 1 million B16 melanoma cells on Day 0. On day +1 they received either no treatment or 200 ug of TA99 antibody. Zm treated mice received 10 mg/kg IP of ZM twice a day beginning on Day 0 and continuing for the remainder of the experiment. The mice were evaluated on Day +15.
Wt and A2a receptor null mice received 1 million B16 melanoma cells IV on day 0. Control mice received not treatment. Treated mice received 200 ug IP of TA99 antibody on days 0, 2, 5. The mice were sacrificed on Day 15 and lung metastases were counted. […] Eliminating A2a receptor activity in the mice reduced melanoma metastases by approximately 50% and treatment with the antibody reduced metastases by approximately 60%. However, when knock out mice are treated with the antibody, the level of tumor metastases dropped by approximately 80% when compared to untreated wild type, and by 50% or more when compared to either the knock out or antibody treated wild type mice.

Experiment [2] concerns LAG-3. Put plainly: LAG-3 upregulation in A.E7 T cells (ionomycin or PMA stimulation; CsA). In kind it is cell-based. The conditions noted are these: ionomycin alone (FIG. 3c). The text has this:
FIGS. 3(a)-(f) are graphs showing that A2a receptor signaling promotes the upregulation of LAG-3^+ in vitro. […] Data are representative of 3 independent experiments. 3(c) is a graph of LAG3 upregulation in A.E7 T cells following stimulation with ionomycin or PMA. 3(d) is an image of representative Western blots for phosphor-ERK and total ERK (top and bottom respectively). […] Data are representative of 3 independent experiments. 3(e) is an image of representative Western blots for junB, and actin (top and bottom, respectively). […] Data are representative of 3 independent experiments. 3(f) is an image of representative EMSA for AP-1. […] Data are representative of 3 independent experiments.

As to `Nc1nc(NCCc2ccc(O)cc2)nc2nc(-c3ccco3)nn12` [ZM, 4-(2-[7-amino-2-(2-furyl)[1,2,4]triazolo[2,3-a][1,3,5]triazin-5-ylamino]ethyl)phenol], the “reduction of average lung metastases, antibody in combination with ZM” value in experiment [1] was “approximately 80%”.
As for `C[C@H](CCC(=O)O)C[C@H](C)C[C@H](C)C(=O)/C=C(\O)[C@H](C)C[C@H](C)C/C=C/[C@@H](C)[C@@H](O)[C@@H](C)[C@@H](O)C[C@@H]1CC[C@@](C)([C@H]2CC[C@@](C)([C@@H](C)O)O2)O1` [ionomycin], the LAG-3 upregulation entry in experiment [2] is on record as “markedly upregulated”.
